Data published in the NIST ThermoML archive (doi:10.1016/j.jct.2012.04.020).
Values joined by “and” are separate entries in the source; they are usually repeats but may differ in a detail not shown here. Equal entries are not always repeated.

Assay: mn = molality of the nth substance listed, in mol/kg
Details: 101 kPa, Liquid; for mass density: Vibrating tube method; for speed of sound: Sing-around technique in a fixed-path interferometer

C[C@H](N)C(=O)O [(S)-2-aminopropanoic acid] + O
mass density [kg/m3]
Details | m1 = 0.05014 | m1 = 0.15 | m1 = 0.2505 | m1 = 0.303 | m1 = 0.3456
288.15 K | 1000.65 | 1003.65 | 1006.52 | 1007.97 | 1009.14
298.15 K | 998.59 | 1001.56 | 1004.42 | 1005.85 | 1006.98
308.15 K | 995.554 | 998.483 | 1001.31 | 1002.74 | 1003.86
318.15 K | 991.648 | 994.399 | 997.067 | 998.365 | 999.359

NCC(=O)O [2-aminoacetic acid] + O
Details | mass density, m1 = 0.04978 [kg/m3] | mass density, m1 = 0.1472 [kg/m3] | mass density, m1 = 0.2507 [kg/m3] | mass density, m1 = 0.3018 [kg/m3] | mass density, m1 = 0.3521 [kg/m3] | speed of sound, m1 = 0.04978 [m/s] | speed of sound, m1 = 0.1472 [m/s] | speed of sound, m1 = 0.2507 [m/s] | speed of sound, m1 = 0.3018 [m/s] | speed of sound, m1 = 0.3521 [m/s]
288.15 K | 1000.74 | 1003.87 | 1007.09 | 1008.62 | 1010.01 | 1484.9 | 1490.1 | 1495.3 | 1497.7 | 1500
298.15 K | 998.674 | 1001.73 | 1004.79 | 1006.26 | 1007.54 | 1499 | 1503.6 | 1508.3 | 1510.3 | 1512.3
308.15 K | 995.639 | 998.704 | 1001.69 | 1003 | 1004.15 | 1521.8 | 1526 | 1530.5 | 1532.4 | 1534.3
318.15 K | 991.801 | 994.854 | 997.838 | 999.157 | 1000.43 | 1538.6 | 1542.8 | 1547 | 1549.3 | 1550.9

O=P([O-])([O-])O.[K+].[K+] [dipotassium hydrogen phosphate] + O
Details | mass density, 288.15 K | mass density, 298.15 K | mass density, 308.15 K | mass density, 318.15 K | speed of sound, 288.15 K | speed of sound, 298.15 K | speed of sound, 308.15 K | speed of sound, 318.15 K
m1 = 0.2 | 1031.93 kg/m3 and 1029.08 kg/m3 | 1029.32 kg/m3 and 1026.51 kg/m3 | 1025.9 kg/m3 and 1023.13 kg/m3 | 1021.79 kg/m3 and 1018.99 kg/m3 | 1502.7 m/s and 1500 m/s | 1530.6 m/s and 1528.2 m/s | 1551.8 m/s and 1549.3 m/s | 1566.8 m/s and 1564.2 m/s
m1 = 0.4 | 1057.5 kg/m3 and 1061.39 kg/m3 | 1054.52 kg/m3 and 1058.35 kg/m3 | 1054.54 kg/m3 and 1050.82 kg/m3 | 1050.25 kg/m3 and 1046.5 kg/m3 | 1531 m/s and 1535 m/s | 1557 m/s and 1560.8 m/s | 1580.1 m/s and 1576.5 m/s | 1593.7 m/s and 1590.2 m/s
m1 = 0.6 | 1084.12 kg/m3 and 1093.21 kg/m3 | 1080.78 kg/m3 and 1089.76 kg/m3 | 1076.82 kg/m3 and 1085.71 kg/m3 | 1072.29 kg/m3 and 1081.11 kg/m3 | 1560.3 m/s and 1570.8 m/s | 1584.4 m/s and 1594.5 m/s | 1602.3 m/s and 1611.8 m/s | 1614.7 m/s and 1623.6 m/s
m1 = 0.8 | 1113.94 kg/m3 and 1116.48 kg/m3 | 1110.27 kg/m3 and 1112.77 kg/m3 | 1106.04 kg/m3 and 1108.53 kg/m3 | 1101.38 kg/m3 and 1103.81 kg/m3 | 1594.2 m/s and 1597.3 m/s | 1616.3 m/s and 1619.1 m/s | 1632.4 m/s and 1635 m/s | 1643.2 m/s and 1645.5 m/s
